Series [1] can be described thus: Evaluation of compounds A-C as Ca^2+ probes (fluorescence intensity vs free Ca^2+). The format is binding. As for the experimental part:
To investigate whether the synthesized compounds A, B, and C can function as Ca^2+ probes, the absorption and fluorescence spectra were measured in solutions of various Ca^2+ concentrations. FIG. 7 represents the absorption spectra (left), emission spectra (center), and fluorescence spectra (right) of 1 μM of compounds A, B, and C in the presence of various concentrations ([…])propanesulfonic acid (MOPS) containing […] and […] (EGTA). The excitation wavelengths were 646 nm (A), 648 nm (B), and 635 nm (C).

The nature of series [2]: Absorption and fluorescence spectra (photophysical properties) of compounds A-C in solutions of various Ca^2+ concentrations. As to conditions: 1 μM compound, pH 7.2 MOPS. Type of series: physicochemical. As to the method:
To investigate whether the synthesized compounds A, B, and C can function as Ca^2+ probes, the absorption and fluorescence spectra were measured in solutions of various Ca^2+ concentrations. FIG. 7 represents the absorption spectra (left), emission spectra (center), and fluorescence spectra (right) of 1 μM of compounds A, B, and C in the presence of various concentrations (0, 0.017, 0.038, 0.065, 0.100, 0.150, 0.225, 0.351, […]) of free Ca^2+ in pH 7.2 30 mM 3-(N-morpholino)propanesulfonic acid (MOPS) containing […] and […] (EGTA). The excitation wavelengths were 646 nm (A), 648 nm (B), and 635 nm (C).

Where [3] appears, read: 39 μM vs 0 μM free [Ca^2+] buffer.
The mark [4] stands for this setting: In 0 μM free [Ca^2+] buffer (absence of Ca^2+).

The structures appear in SMILES notation.

As to `Cc1ccc(N(CC(=O)O)CC(=O)O)c(OCCOc2cc(NC(=O)c3ccc(C4=C5C=CC(=[N+](C)C)C=C5[Si](C)(C)c5cc(N(C)C)ccc54)c(C(=O)O)c3)ccc2N(CC(=O)O)CC(=O)O)c1` [Compound A], the “Activation Ratio” value in series [1] (setting [3]) was “×2.5”; in series [1] (with vs without Ca^2+), 2.5 fold. Moreover, the Φfl in series [2] (setting [4]) came to 0.10; in series [2] (In 39 μM free [Ca^2+] buffer), 0.25. The λabs in series [2] (In 0 μM free [Ca^2+] buffer) and in series [2] (In 39 μM free [Ca^2+] buffer) was 646 nm in each case. For the same compound, the λfl in series [2] (In 0 μM free [Ca^2+] buffer) was determined as 673 nm; in series [2] (In 39 μM free [Ca^2+] buffer), 674 nm.

For `Cc1ccc(N(CC(=O)O)CC(=O)O)c(OCCOc2cc(NC(=O)c3ccc(C(=O)O)c(C4=C5C=CC(=[N+](C)C)C=C5[Si](C)(C)c5cc(N(C)C)ccc54)c3)ccc2N(CC(=O)O)CC(=O)O)c1` [Compound B], the “Activation Ratio” value in series [1] (setting [3]) is listed as “×7.3”. The same compound returned a Φfl in series [2] (setting [4]) of 0.04. For the same compound, in series [2] (In 0 μM free [Ca^2+] buffer), the λabs was 648 nm and the λfl turned out to be 671 nm. In series [2] (In 39 μM free [Ca^2+] buffer), the Φfl is 0.29, the λabs came to 647 nm and the λfl is recorded as 672 nm.

With `Cc1ccc(N(CC(=O)O)CC(=O)O)c(OCCOc2cc(NC(=O)C/[N+](C)=C3/C=CC4=C(c5ccccc5C(=O)[O-])c5ccc(N(C)C)cc5[Si](C)(C)C4=C3)ccc2N(CC(=O)O)CC(=O)O)c1` [Compound C], the results for the “Activation Ratio” value in series [1] (setting [3]) and in series [1] (with vs without Ca^2+) were “×26” and 26 fold, respectively. Also, the Φfl in series [2] (setting [4]) is given as 0.01; in series [2] (In 39 μM free [Ca^2+] buffer), 0.26. The λabs in series [2] (In 0 μM free [Ca^2+] buffer) turned out to be 637 nm; in series [2] (In 39 μM free [Ca^2+] buffer) it was 636 nm. Further, the λfl in series [2] (In 0 μM free [Ca^2+] buffer) turned out to be 664 nm; in series [2] (In 39 μM free [Ca^2+] buffer), 661 nm.

Source of the values: patent US20200087326A1, “DEEP RED FLUORESCENT PROBE” (The University of Tokyo, priority 2016, published 2020).
